US20030130290A1, “Fungicidal combinations comprising thieno[2,3-d]pyrimidin-4-one” (priority 1997, published 2003)

Experiments:
[1] = system: Erysiphe graminis f.sp. tritici; experiment: Efficacy against Erysiphe graminis f.sp. tritici on wheat (Example B-1), spray application; format: in vivo, Erysiphe graminis f.sp. tritici on wheat plants c.v. Arina
From the text: (§1) A synergistic effect exists whenever the action of an active ingredient combination is greater than the sum of the actions of the individual components.
(§2) The action to be expected E for a given active ingredient combination obeys the so-called COLBY formula and can be calculated as follows (COLBY, S. R. “Calculating synergistic and antagonistic responses of herbicide combination”. Weeds, Vol. 15, pages 20-22; 1967):
(§3) According to Colby, the expected (additive) action of active ingredients I+II using p+q ppm of active ingredient is [formula]
(§4) If the action actually observed (O) is greater than the expected action (E), then the action of the combination is superadditive, i.e. there is a synergistic effect. Alternatively the synergistic action may also be determined from the dose response curves according to the so-called WADLEY method. With this method the efficacy of the a.i. is determined by comparing the degree of fungal attack on treated plants with that on untreated, similarly inoculated and incubated check plants. Each a.i. is tested at 4 to 5 concentrations. The dose response curves are used to establish the EC90 (i.e. concentration of a.i. providing 90% disease control) of the single compounds as well as of the combinations (EC 90observed). The thus experimentally found values of the mixtures at a given weight ratio are compared with the values that would have been found were only a complementary efficacy of the components was present (EC 90 (A+B)expected). The EC90 (A+B)expected is calculated according to Wadley (Levi et al., EPPO- Bulletin 16, 1986, 651-657): [formula]
Wheat plants c.v. “Arina”, about 10 days old, are sprayed with aqueous suspensions of the active ingredients or mixtures thereof. One day later, the plants are inoculated by dusting with spores of Erysiphe graminis. The tests may also be carried out with curative applications, i.e. application 1-3 days after artificial inoculation of the plants. The plants are incubated in the greenhouse or in climate chambers at 20° C., 70% relative humidity. 7 to 10 days after inoculation, fungal attack on primary leaves is assessed.
(§5) The efficacy of the test combinations and the single active ingredients in the above tests is determined by comparing the degree of fungal attack with that on untreated, similarly inoculated check plants.

[2] = system: Helminthosporium gramineum; experiment: Activity against Helminthosporium gramineum on barley (Example B-12), seed treatment; format: in vivo; conditions: Table 6
From the text: as §1, §2, §3, §4
Barley seed which is infected with H.gramineum is harvested from the field. […] About 60 days after sowing, the number of existing plants and the number of infected plants are determined. Symptoms are expressed as typical stripe-shaped spots on the first leaf. The total infection rate is compared with the total infection rate in the comparison seed trays with untreated seeds and expressed as the total percentage infection rate.

[3] = system: Puccinia recondita; experiment: Activity against Puccinia recondita in wheat (B-7), spray application; format: in vivo, Puccinia recondita on wheat plants c.v. Arina; conditions: Table 5
From the text: as §1, §2, §3, §4
Wheat plants c.v. “Arina”, about 10 days old, are sprayed with aqueous suspensions of the active ingredients or mixtures thereof. One day later, the plants are inoculated with a spore suspension of the fungus. The test may also be carried out with curative applications, i.e. application 1-3 days later after artificial inoculation of the plants. The plants are incubated in a growth chamber for 2 days at °20° C. and 95-100% relative humidity, then further 10 days at 20° C. and 70% relative humidity. Fungal attack on primary leaves is assessed.
as §5

In the case of `CCCC1COC(Cn2cncn2)(c2ccc(Cl)cc2Cl)O1` (stereo not drawn) [propiconazole, reference compound], the “% activity observed” value ([1]; Table 3, 0.1 ppm alone) is reported as 0%, the “% activity observed” value ([1]; Table 3, 0.25 ppm alone) is reported as 0% and the “% activity observed” value ([1]; Table 3, 0.5 ppm alone) is reported as 6%. The “% activity observed” value ([1]; Table 3, 1 ppm alone) was 8% and the “% activity observed” value ([1]; Table 3, 2.5 ppm alone) was 72%.
`CC1(C)CC/C(=C\c2ccc(Cl)cc2)C1(O)Cn1cncn1` (stereo not drawn) [triticonazole] was tested, and the “% activity observed” value ([2]; 20 g a.i./100 kg seed alone) was 12% and the “% activity observed” value ([2]; 40 g a.i./100 kg seed alone) was 22%.
In the case of `CC(C1CC1)C(O)(Cn1cncn1)c1ccc(Cl)cc1` (stereo not drawn) [cyproconazole, reference compound], the “% activity observed” value ([1]; Table 2, 1 ppm alone) is reported as 8%, the “% activity observed” value ([1]; Table 2, 2.5 ppm alone) is reported as 49% and the “% activity observed” value ([1]; Table 2, 5 ppm alone) is reported as 100%. The “% activity observed” value ([1]; Table 2, 10 ppm alone) was 100%.
`CC(Cc1ccc(C(C)(C)C)cc1)CN1CCCCC1` (stereo not drawn) [fenpropidine, reference compound] showed an inhibition at 2.5 ppm ([1]; Blumeria graminis, Table 4, 2.5 ppm alone, read-out: % activity observed) of 35%, an inhibition at 5 ppm ([1]; Blumeria graminis, Table 4, 5 ppm alone, read-out: % activity observed) of 51% and an inhibition at 10 ppm ([1]; Blumeria graminis, Table 4, 10 ppm alone, read-out: % activity observed) of 63%.
`CCCOc1nc2sc(Cl)cc2c(=O)n1CCC` [cmpd. I.01] was tested, and the “% activity observed” value ([1]; Table 1, 10 ppm alone) was 0%, the “% activity observed” value ([1]; Table 1, 25 ppm alone) was 0% and the “% activity observed” value ([1]; Table 1, 50 ppm alone) was 12%. The “% activity observed” value ([1]; Table 1, 100 ppm alone) was 26%, the “% activity observed” value ([1]; Table 1, 250 ppm alone) was 34% and the “% activity observed” value ([1]; Table 1, 500 ppm alone) was 66%. For the same molecule, the “% activity observed” value ([1]; Table 2, 1 ppm alone) was 0%, the “% activity observed” value ([1]; Table 2, 2.5 ppm alone) was 0% and the “% activity observed” value ([1]; Table 2, 5 ppm alone) was 8%. The “% activity observed” value ([1]; Table 2, 10 ppm alone) was 8%, the “% activity observed” value ([1]; Table 2, o.5 ppm alone) was 0% and the “% activity observed” value ([1]; Table 3, 0.5 ppm alone) was 2%. The “% activity observed” value ([1]; Table 3, 1 ppm alone) was 0%, the “% activity observed” value ([1]; Table 3, 2.5 ppm alone) was 14% and the “% activity observed” value ([1]; Table 3, 5 ppm alone) was 8%. The “% activity observed” value ([1]; Table 3, 10 ppm alone) was 4%, the “% activity observed” value ([1]; Table 4, 0.25 ppm alone) was 0% and the “% activity observed” value ([1]; Table 4, 0.5 ppm alone) was 0%. For the same molecule, the “% activity observed” value ([1]; Table 4, 1 ppm alone) was 0%, the “% activity observed” value ([1]; Table 4, 2.5 ppm alone) was 0% and the “% activity observed” value ([3]; 0.5 ppm alone) was 0%. For the same molecule, the “% activity observed” value ([3]; 1 ppm alone) was 0%, the “% activity observed” value ([3]; 2.5 ppm alone) was 0% and the “% activity observed” value ([3]; 5 ppm alone) was 0%. For the same molecule, the “% activity observed” value ([3]; 10 ppm alone) was 0%, the “% activity observed” value ([3]; 25 ppm alone) was 0% and the “% activity observed” value ([2]; 20 g a.i./100 kg seed alone) was 11%.
`CON=C(C(=O)OC)c1ccccc1CON=C(C)c1cccc(C(F)(F)F)c1` [cmpd. V, methyl 2-{2-[4-(3-trifluoromethylphenyl)-3-aza-2-oxa-3-pentenyl]-phenyl}-2-methoxyimino-acetate, reference compound] showed an inhibition at 1 ppm ([3]; Puccinia recondita, 1 ppm alone, read-out: % activity observed) of 17%, an inhibition at 2.5 ppm ([3]; Puccinia recondita, 2.5 ppm alone, read-out: % activity observed) of 32% and an inhibition at 5 ppm ([3]; Puccinia recondita, 5 ppm alone, read-out: % activity observed) of 38%. For the same molecule, the inhibition at 10 ppm ([3]; Puccinia recondita, 10 ppm alone, read-out: % activity observed) was 37%.
`N#Cc1c[nH]cc1-c1cccc2c1OC(F)(F)O2` [Fludioxonil, fludioxonil, reference compound] was tested, and the “% activity observed” value ([1]; Table 1, 10 ppm alone) was 2%, the “% activity observed” value ([1]; Table 1, 25 ppm alone) was 0% and the “% activity observed” value ([1]; Table 1, 50 ppm alone) was 6%. The “% activity observed” value ([1]; Table 1, 100 ppm alone) was 14%, the “% activity observed” value ([1]; Table 1, 250 ppm alone) was 19% and the “% activity observed” value ([1]; Table 1, 500 ppm alone) was 27%.
